Experimental data: patent US7700655B2, “Antiallergic agents” (Institute of Medicinal Molecular Design, Inc., priority 2002, dated 2010)

Legend:
[1] = test system: mouse bone marrow-derived cultured mast cells (BMCMC); experiment: Degranulation inhibitory test of mast cell (β-hexosaminidase release); assay type: cell-based; details: 1 h, anti DNP IgE / DNP-BSA 50 ng/ml stimulation, 60 minutes, read-out: Inhibitory Ration of Degranulation(%) at 10 μM Drug Concentration
Procedure: Degranulation Inhibitory Test of Mast Cell
Anti DNP IgE was added to mouse bone marrow-derived cultured mast cells (BMCMC) which were treated beforehand with anti DNP IgE for 4 days for expression of IgE receptor. The cells were cultured for 3 days, and treated for 1 hour with or without the addition of a test substance. Then, the medium was changed to α-Modified Eagle's Medium containing 10% of bovine fetal serum without phenol red. After cultivation for 60 minutes with rmIL-3 (100 U/ml) and DNP-BSA (50 ng/ml) in the presence or absence of the test substance, the concentrations of β-hexosaminidase in the culture medium and in the cells were determined, and the progress of degranulation was measured from a ratio of the amounts. The inhibitory ratio of the degranulation by the drug was calculated when degranulation in the absence of the test substance was taken as 100%, and degranulation in the presence of anti DNP-IgE only and in the absence of the test substance was taken as 0%.

HT-1080 cells = experiment: Proliferation inhibitory test of fibrosarcoma (HT-1080) under PDGF stimulation (MTT assay); assay type: cell-based; details: 48 hours
Procedure: Proliferation Inhibitory Test of Fibrosarcoma (HT-1080) Under PDGF Stimulation
HT-1080 cells were cultured for 2 hours in EMEM medium containing 1% of FBS and NEAA in the presence or absence of a test substance. PDGF was added and the cells were cultured for 48 hours, and the proliferation of the cells was measured by MTT assay.

[2] = test system: Bone marrow-derived cultured mast cells of NC/Nga mouse; experiment: Proliferation inhibitory test of mast cell under stimulation by SCF and IL-3; assay type: cell-based; details: rmIL-3 100 U/ml + SCF 100 ng/ml, living cells by trypan blue
Procedure: Proliferation Inhibitory Test of Mast Cell Under Stimulation by SCF and IL-3
Bone marrow-derived cultured mast cells (10^5 cells/ml) of NC/Nga mouse were cultured with rmIL-3 (100 U/ml) and SCF (100 ng/ml) in the presence or absence of a test drug in α-Modified Eagle's Medium containing 10% of bovine fetal serum without phenol red, and then stained with trypan blue, and the number of living cells was counted.

[3] = test system: B cells isolated from mouse spleen; experiment: IgE production inhibitory test of spleen B cell (ELISA); assay type: cell-based; details: 0.1 μM; rmIL-4 200 U/ml + soluble mCD40 ligand 100 ng/ml, 9 days; no-drug control 45.6
Procedure: IgE Production Inhibitory Test of Spleen B Cell
B cells isolated from mouse spleen were cultured with 200 U/ml of rmIL-4 and 100 ng/ml of soluble mCD40 ligand in the presence or absence of a test drug in PRMI 1640 medium containing 10% of bovine fetal serum for 9 days, and the amount of IgE in the culture medium was measured by ELISA method.

NC/Nga mouse [4] = experiment: Immediate type allergy reaction inhibitory test (ear swelling test); assay type: in vivo; details: 15 mg/kg intraperitoneally, picryl chloride on auricle; FIG. 1
Procedure: Immediate Type Allergy Reaction Inhibitory Test (Ear Swelling Test)
To NC/Nga mouse sensitized by an intravenous administration of anti DNP-IgE, a diluent with a test compound for the drug administered group or that without a test drug for the control group was intraperitoneally administered. Two hours after the administration, picryl chloride dissolved in olive oil was applied to auricle to induce immediate allergy, and then swelling of the auricle was measured with passage of time for comparison of the drug administered group and the control group.

NC/Nga mouse [5] = experiment: Dermatitis inhibitory test by atopic dermatitis model using NC/Nga mouse; assay type: in vivo; details: ointment containing 1% applied once a day; FIG. 2
Procedure: Dermatitis Inhibitory Test by Atopic Dermatitis Model Using NC/Nga Mouse
To the conventional NC/Nga mouse with the onset of severe dermatitis, an ointment containing 1% of a test substance for the drug treated group or a base material of the ointment for the control group was applied once a day, and clinical symptoms were recorded as scores with passage of day. Furthermore, the amounts of IgE in blood before and after the test were measured by ELISA.

| Compound | inhibition at 10 µM [1] [%] | Inhibitory Ratio of Proliferation(%) (HT-1080 cells; Drug Concentration 250 nM) | Inhibitory Ratio of Proliferation(%) (HT-1080 cells; Drug Concentration 500 nM) | further results |
| --- | --- | --- | --- | --- |
| CC(=O)Oc1ccccc1C(=O)Nc1cc(Cl)cc(Cl)c1 [compound 172, 2-acetoxy-N-(3,5-dichlorophenyl)benzamide] | – | – | – | melting point: 218 to 219 °C |
| CC(C)(C)C(=O)c1sc(NC(=O)c2cc(Cl)ccc2O)nc1C(C)(C)C [compound 195, 5-Chloro-N-{4-[(1,1-dimethyl)ethyl]-5-[(2,2-dimethyl)propionyl]thiazol-2-yl}-2-hydroxybenzamide] | 72 | 44.7 | 81.7 | – |
| O=C(Nc1cc(C(F)(F)F)ccc1Cl)c1cc(Cl)ccc1O [compound 113, 5-chloro-N-[2-chloro-5-(trifluoromethyl)phenyl]-2-hydroxybenzamide] | 93 | – | – | – |
| CC(C)(C)c1nc(NC(=O)c2cc(Br)ccc2O)sc1N1CCOCC1 [compound 199, 5-Bromo-N-{4-[(1,1-dimethyl)ethyl]-5-morpholinothiazol-2-yl}-2-hydroxybenzamide] | – | 26.2 | 24.2 | – |
| CC(C)(C)c1ccc(O)c(C(=O)Nc2cc(C(F)(F)F)cc(C(F)(F)F)c2)c1 [compound 56, N-[3,5-Bis(trifluoromethyl)phenyl]-5-[(1,1-dimethyl)ethyl]-2-hydroxybenzamide] | 92 | 37.5 | 96.9 | – |
| CC(C)(C)c1nc(NC(=O)c2cc(Br)ccc2O)sc1N1CCN(c2ccccc2)CC1 [compound 201, 5-Bromo-N-{4-[(1,1-dimethyl)ethyl]-5-(4-phenylpiperazin-1-yl)thiazol-2-yl}-2-hydroxybenzamide] | – | 60.3 | 76.2 | – |
| O=C(Nc1cc(C(F)(F)F)ccc1C(F)(F)F)c1cc(Cl)ccc1O [compound 100, N-[2,5-bis(trifluoromethyl)phenyl]-5-chloro-2-hydroxybenzamide] | 83 | – | – | – |
| O=C(Nc1cc(C(F)(F)F)cc(C(F)(F)F)c1)c1cc(Cl)ccc1O [compound 50, N-[3,5-Bis(trifluoromethyl)phenyl]-5-chloro-2-hydroxybenzamide] | > 99 | 65.4 | 96.6 | Number of Cell ([2]; 1 μM, culture time 0 hr): 100000 mL⁻¹; Number of Cell ([2]; 1 μM, culture time 24 hr): 86000 mL⁻¹; Number of Cell ([2]; 1 μM, culture time 48 hr): 84000 mL⁻¹; Number of Cell ([2]; 1 μM, culture time 72 hr): 116000 mL⁻¹; Number of Cell ([2]; 5 μM, culture time 0 hr): 100000 mL⁻¹; Number of Cell ([2]; 5 μM, culture time 24 hr): 70000 mL⁻¹; Number of Cell ([2]; 5 μM, culture time 48 hr): 52000 mL⁻¹; Number of Cell ([2]; 5 μM, culture time 72 hr): 22000 mL⁻¹; Amount of IgE [3]: 24 ng/mL; effect against immediate type allergy (swelling of the auricle) (NC/Nga mouse [4]): inhibitory effect; effect against dermatitis with an atopic dermatitis model (clinical symptom scores) (NC/Nga mouse [5]): inhibitory effect |
| O=C(Nc1cc(C(F)(F)F)cc(C(F)(F)F)c1)c1cc(-n2cccc2)ccc1O [compound 71] | – | 57.9 | 83.1 | – |
| O=C(Nc1cc(C(F)(F)F)ccc1C(F)(F)F)c1cc(Br)ccc1O [compound 552] | – | 24.0 | 19.4 | – |
